Source: patent US20240034736A1, “HSD17B13 INHIBITORS AND USES THEREOF” (FL2022-001, Inc., priority 2020, published 2024)

Target: Recombinant human HSD17B13 enzyme (Homo sapiens (Human), UniProt Q7Z5P4)
Experiment: HSD17b13 NAD(P)H-Glo Biochemical Assay
Details: 50 uM estradiol, 1 mM NAD+; read-out: HSD17β13 IC50
Experimental: Recombinant human HSD17B13 enzyme. Substrate: estradiol (Sigma β-Estradiol E8875), 100 mM in DMSO. […] Assay buffer final concentration: 20 mM Tris pH7.4 with 0.002% Tween-20 and 0.02% BSA. […] Enzymatic activity detected by NAD(P)H-Glo™ Detection System (Promega G9062).
Inhibitor compounds were serially diluted in DMSO and then further diluted in assay buffer to a 10× concentration consisting of 1% DMSO.
HSD17b13 enzyme was diluted in 1× assay buffer to the desired enzyme concentration based on the specific activity of the enzyme lot. 20 uL of diluted enzyme was added to each well along with 2.5 uL of 10× inhibitor solution. Assay plate was incubated at RT for 20 minutes, and then 2.5 uL of a 10× substrate/cofactor mix was added to each well for a final concentration of 50 uM estradiol and 1 mMNAD+. Assay plate was incubated at 37° C. for 3 hours. NAD(P)H-Glo™ Detection System reagents were prepared according to manufacturer's specifications, and 25 uL was added to each well. After incubating for 1 hour at RT, luminescence was measured.

Recombinant human HSD17B13 enzyme, sequence (Q7Z5P4 20-300): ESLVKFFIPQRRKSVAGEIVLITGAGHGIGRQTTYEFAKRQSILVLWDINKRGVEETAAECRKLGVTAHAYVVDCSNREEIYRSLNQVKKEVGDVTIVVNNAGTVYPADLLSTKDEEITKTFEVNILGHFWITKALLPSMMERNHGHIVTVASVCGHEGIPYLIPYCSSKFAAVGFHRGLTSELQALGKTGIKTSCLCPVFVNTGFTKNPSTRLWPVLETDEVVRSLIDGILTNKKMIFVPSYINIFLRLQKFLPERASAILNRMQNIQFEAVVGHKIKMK

SMILES | IC50 [µM]
Cc1cc(-c2ccc3c(cnn3-c3ccc(F)c(O)c3)c2)ccc1O [Compound 5.02, 4-(1-(4-Fluoro-3-hydroxyphenyl)-1H-indazol-5-yl)-2-methylphenol] | 0.1 to 1
Cc1ccc(-c2ccc3c(cnn3-c3ccc(F)c(O)c3)c2)cc1 [Compound 4.07, 2-Fluoro-5-(5-(p-tolyl)-1H-indazol-1-yl)phenol] | 0.1 to 1
CS(=O)(=O)N1CCN(c2cc3cnn(-c4cccc(O)c4F)c3cn2)CC1 [Compound 19.11, 2-Fluoro-3-(5-(4-(methylsulfonyl)piperazin-1-yl)-1H-pyrazolo[3,4-c]pyridine-1-yl)phenol] | 1 to 30
O=C(O)Cc1ccc(-c2ccc3c(cnn3-c3ccc(F)c(O)c3)c2)cc1 [Compound 2.01, 2-(4-(1-(4-Fluoro-3-hydroxyphenyl)-1H-indazol-5-yl)phenyl)acetic acid] | 1 to 30
CS(=O)(=O)N1CCN(c2cc3cn(-c4cc(O)c(F)cn4)nc3cn2)CC1 [Compound 19.20, 5-Fluoro-2-(5-(4-(methylsulfonyl)piperazin-1-yl)-2H-pyrazolo[3,4-c]pyridine-2-yl)pyridine-4-ol] | 1 to 30
Oc1cccc(-n2ncc3cc(-c4ccc(O)c(Cl)c4)ccc32)c1 [Compound 3.05, 2-Chloro-4-(1-(3-hydroxyphenyl)-1H-indazol-5-yl)phenol] | 1 to 30
Oc1cc(-n2ncc3cc(-c4cncc(F)c4)ccc32)cc(F)c1F [Compound 7.04, 2,3-Difluoro-5-(5-(5-fluoropyridin-3-yl)-1H-indazol-1-yl)phenol] | 0.1 to 1
CS(=O)(=O)N1CCN(c2cc3cnn(-c4ncc(Cl)c(O)c4F)c3cn2)CC1 [Compound 19.31, 5-Chloro-3-fluoro-2-(5-(4-(methylsulfonyl)piperazin-1-yl)-1H-pyrazolo[3,4-c]pyridine-1-yl)pyridine-4-ol] | 1 to 30
CC(=O)Nc1ccc(-c2ccc3c(cnn3-c3ccc(F)c(O)c3)c2)c(Cl)c1 [Compound 5.18, N-(3-Chloro-4-(1-(4-fluoro-3-hydroxyphenyl)-1H-indazol-5-yl)phenyl)acetamide] | 0.1 to 1
Oc1ccc(-c2ccc3c(cnn3-c3cc(O)c(F)c(F)c3F)c2)cc1Cl [Compound 1.05, 5-(5-(3-Chloro-4-hydroxyphenyl)-1H-indazol-1-yl)-2,3,4-trifluorophenol] | 0.1 to 1
Cc1nn(-c2ccc(F)c(O)c2)c2ccc(-c3ccc(O)c(Cl)c3)cc12 [Compound 4.05, 2-Chloro-4-(1-(4-fluoro-3-hydroxyphenyl)-3-methyl-1H-indazol-5-yl)phenol] | 0.1 to 1
Oc1cc(-n2ncc3cc(-c4cncc(Cl)c4)ccc32)cc(F)c1F [Compound 7, 5-(5-(5-Chloropyridin-3-yl)-1H-indazol-1-yl)-2,3-difluorophenol] | 0.1 to 1
CS(=O)(=O)Nc1ccc(-c2ccc3c(cnn3-c3ccc(F)c(O)c3)c2)cc1 [Compound 4.02, N-(4-(1-(4-Fluoro-3-hydroxyphenyl)-1H-indazol-5-yl)phenyl)methanesulfonamide] | 0.1 to 1
Oc1ccc(-c2ccc3c(cnn3-c3cc(O)c(F)c(C(F)(F)F)c3)c2)cc1Cl [Compound 1.04, 5-(5-(3-Chloro-4-hydroxyphenyl)-1H-indazol-1-yl)-2-fluoro-3-(trifluoromethyl)phenol] | < 0.1
Cc1n[nH]c(C)c1-c1ccc2c(cnn2-c2ccc(F)c(O)c2)c1 [Compound 5.17, 5-(5-(3,5-Dimethyl-1H-pyrazol-4-yl)-1H-indazol-1-yl)-2-fluorophenol] | 0.1 to 1
CC1(C)CC=C(c2ccc3nn(-c4cc(O)c(F)c(C(F)(F)F)c4)cc3c2)CC1 [Compound 18.02, 5-(5-(4,4-Dimethylcyclohex-1-en-1-yl)-2H-indazol-2-yl)-2-fluoro-3-(trifluoromethyl)phenol] | 0.1 to 1
CS(=O)(=O)N1CCN(c2cc3cnn(-c4cc(O)cc(OC(F)(F)F)c4)c3cn2)CC1 [Compound 19.12, 3-(5-(4-(Methylsulfonyl)piperazin-1-yl)-1H-pyrazolo[3,4-c]pyridine-1-yl)-5-(trifluoromethoxy)phenol] | 1 to 30

The next lines start with the values.

IC50 [µM] | SMILES
1 to 30 | CN(C)C(=O)c1nn(-c2cc(C(F)(F)F)c(F)c(O)c2F)c2ccc(N(C)C3CCOCC3)cc12 [Compound 19.113, 1-(2,4-Difluoro-3-hydroxy-5-(trifluoromethyl)phenyl)-N,N-dimethyl-5-(methyl(tetrahydro-2H-pyran-4-yl)amino)-1H-indazole-3-carboxamide]
1 to 30 | CS(=O)(=O)NC1CCN(c2ccc3c(cnn3-c3cc(O)c(F)c(F)c3)c2)CC1 [Compound 21.05, N-(1-(1-(3,4-Difluoro-5-hydroxyphenyl)-1H-indazol-5-yl)piperidin-4-yl)methane-sulfonamide]
0.1 to 1 | COC1CCN(c2cc3c(C)nn(-c4cc(C(F)(F)F)c(F)c(O)c4F)c3cn2)CC1 [Compound 19.51, 2,6-Difluoro-3-(5-(4-methoxypiperidin-1-yl)-3-methyl-1H-pyrazolo[3,4-c]pyridine-1-yl)-5-(trifluoromethyl)phenol]
< 0.1 | Cc1nn(-c2cc(C(F)(F)F)c(F)c(O)c2F)c2cnc(N(C)C3CCOCC3)cc12 [Compound 19.47, 2,6-Difluoro-3-(3-methyl-5-(methyl(tetrahydro-2H-pyran-4-yl)amino)-1H-pyrazolo[3,4-c]pyridin-1-yl)-5-(trifluoromethyl)phenol]
1 to 30 | CS(=O)(=O)N1CCC(C#N)(c2ccc3c(cnn3-c3cc(O)c(F)c(F)c3)c2)CC1 [Compound 28.04, 4-(1-(3,4-Difluoro-5-hydroxy-phenyl)-1H-indazol-5-yl)-1-(methylsulfonyl)piperidine-4-carbonitrile]
0.1 to 1 | CNC(=O)N1CCC(c2ccc3c(cnn3-c3ccc(F)c(O)c3)c2)CC1 [Compound 26.02, 4-(1-(4-Fluoro-3-hydroxy-phenyl)-1H-indazol-5-yl)-N-methylpiperidine-1-carboxamide]
0.1 to 1 | Cc1nn(-c2cc(O)c(F)c(C(F)(F)F)c2)c2cnc(N3CCN(S(C)(=O)=O)CC3)cc12 [Compound 21.50, 2-Fluoro-5-(3-methyl-5-(4-(methylsulfonyl)piperazin-1-yl)-1H-pyrazolo[3,4-c]-pyridine-1-yl)-3-(trifluoro-methyl)phenol]
1 to 30 | COC1CCN(c2ccc3c(cnn3-c3cc(O)c(F)c(F)c3)c2)C1 (centres unmarked) [Compound 21.22, 2,3-Difluoro-5-(5-(3-methoxy-pyrrolidin-1-yl)-1H-indazol-1-yl)phenol]
0.1 to 1 | C[C@H]1COCCN1c1cc2cnn(-c3cc(O)c(F)c(C(F)(F)F)c3)c2cn1 [Compound 21.56, (S)-2-Fluoro-5-(5-(3-methyl-morpholino)-1H-pyrazolo[3,4-c]pyridin-1-yl)-3-(trifluoro-methyl)phenol]
1 to 30 | CS(=O)(=O)N1CCN(c2ccc3nn(-c4cc(O)cc(C(F)(F)F)n4)cc3c2)CC1 [Compound 31.03, 2-(5-(4-(Methylsulfonyl)-piperazin-1-yl)-2H-indazol-2-yl)-6-(trifluoromethyl)-pyridin-4-ol]
< 0.1 | Cc1nn(-c2cc(C(F)(F)F)c(F)c(O)c2F)c2cnc(N3CCOCC34CCC4)cc12 [Compound 19.65, 2,6-Difluoro-3-(3-methyl-5-(8-oxa-5-azaspiro[3.5]nonan-5-yl)-1H-pyrazolo[3,4-c]pyridin-1-yl)-5-(trifluoromethyl)phenol]
0.1 to 1 | CC1CN(S(C)(=O)=O)CCN1c1cc2cnn(-c3cc(O)c(F)c(C(F)(F)F)c3)c2cn1 (centres unmarked) [Compound 19.33, 2-Fluoro-5-(5-(2-methyl-4-(methylsulfonyl)piperazin-1-yl)-1H-pyrazolo[3,4-c]pyridine-1-yl)-3-(trifluoromethyl)phenol]
0.1 to 1 | Oc1cc(-n2ncc3cc(N4CCCCC4)ncc32)cc(C(F)(F)F)c1F [Compound 21.42, 2-Fluoro-5-(5-(piperidin-1-yl)-1H-pyrazolo[3,4-c]pyridine-1-yl)-3-(trifluoromethyl)phenol]
0.1 to 1 | O=S(=O)(NC1CN(c2cc3cnn(-c4cc(O)c(F)c(F)c4)c3cc2Cl)C1)c1ccccc1 [Compound 21.34, N-(1-(6-Chloro-1-(3,4-difluoro-5-hydroxyphenyl)-1H-indazol-5-yl)azetidin-3-yl)benzene-sulfonamide]
< 0.1 | Cc1nn(-c2cc(C(F)(F)F)c(F)c(O)c2F)c2cnc(N3CCN(S(=O)(=O)c4ccccc4)CC3)cc12 [Compound 19.56, 2,6-Difluoro-3-(3-methyl-5-(4-(phenylsulfonyl)piperazin-1-yl)-1H-pyrazolo[3,4-c]pyridine-1-yl)-5-(trifluoromethyl)phenol]
0.1 to 1 | Cc1nn(-c2cc(C(F)(F)F)c(F)c(O)c2F)c2cnc(N3CCN(c4ccccc4)CC3)cc12 [Compound 19.63, 2,6-Difluoro-3-(3-methyl-5-(4-phenylpiperazin-1-yl)-1H-pyrazolo[3,4-c]pyridin-1-yl)-5-(trifluoromethyl)phenol]

Same assay, conditions: read-out: HSD17β13 inhibition at 30 uM

inhibition at 30 µM [%] | SMILES
< 20 | CS(=O)(=O)N1CCN(c2ccc3c(c2)cc(C(=O)O)n3-c2ccc(F)c(O)c2)CC1 [Compound 21.61, 1-(4-Fluoro-3-hydroxyphenyl)-5-(4-(methylsulfonyl)piperazin-1-yl)-1H-indole-2-carboxylic acid]
49 | CS(=O)(=O)N1CCN(c2cc3cn(-c4cc(O)cc(C#N)c4)nc3cn2)CC1 [Compound 19.35, 3-Hydroxy-5-(5-(4-(methylsulfonyl)piperazin-1-yl)-2H-pyrazolo[3,4-c]pyridine-2-yl)benzonitrile]
